Results on four molecules are retold here after US20100062046A1, “POLYMORPHS OF NICOTINIC INTERMEDIATES” (priority 2006, published 2010).

Each structure is given as a SMILES string.

Holding throughout (assay type): physicochemical
Series [1] in a line: Hygroscopicity of crystalline forms. The conditions noted are these: crystalline solid.
Series [2] can be described thus: Relative stability of crystalline forms, studies in dichloromethane, ethyl acetate, methanol and toluene. The conditions noted are these: compound II. The method, then: Form B was obtained mainly from fast evaporations of ethyl acetate and methyl ethyl ketone, and from a solvent/antisolvent. […] Form A has a melting point of ˜177° C. and Form B has a melting point of ˜170° C.

Series [3] in a line: Storage of Form C at high humidities. As to conditions: stored at high humidities. An excerpt: and is observed when Form C is stored at high humidities. […] The lot used to generate this X-ray powder diffraction and Raman data may contain residual compound IV Form C.

Take `O=C(N1CC2CC(C1)c1cc([N+](=O)[O-])c([N+](=O)[O-])cc12)C(F)(F)F` [Compound II Form A, 1,5-Methano-1H-3-benzazepine-2,3,4,5-tetrahydro-7,8-dinitro-3-(trifluoroacetyl)]: the hygroscopicity result in series [1] is listed as “non-hygroscopic”. In addition, in series [2] (ambient temperature and 60° C., dichloromethane, ethyl acetate, methanol, toluene), the “relative stability of crystalline forms” value is “more stable than Form B”.
Regarding `O=C(N1CC2CC(C1)c1cc3nccnc3cc12)C(F)(F)F` [Compound III Form A, 6,10-Methano-6H-pyrazino[2,3-h][3]benzazepine,7,8,9,10-tetrahydro-8-(trifluoroacetyl)], the hygroscopicity entry in series [1] is “non-hygroscopic”.
Consider `c1cnc2cc3c(cc2n1)C1CNCC3C1` [Compound IV Form C], for which, in series [3], the “formation of N-carboxyvarenicline adduct on storage” value is listed as “observed”.
Regarding `O=C(N1CC2CC(C1)c1cc([N+](=O)[O-])c([N+](=O)[O-])cc12)C(F)(F)F` [Compound II Form B, 1,5-Methano-1H-3-benzazepine-2,3,4,5-tetrahydro-7,8-dinitro-3-(trifluoroacetyl)], the “form conversion upon heating” value in series [2] (upon heating) is reported as “converts to Form A upon heating”.
